Results reported in patent US7666642B2, “Nematode fatty acid desaturase-like sequences” (Divergence, Inc., priority 2001, dated 2010).
Read-outs that look alike come from different tables or passages of the source.

What was measured:
[1] = test system: everted hamster jejunal and ileal segments; conditions: cited from earlier work
[2] = test system: isolated intestinal epithelial cells; conditions: cited from earlier work
[3] = test system: Δ9 fatty acid desaturases; conditions: cited from earlier work
plants [4] = conditions: in vivo
C. elegans [5] = assay: Rescue of C. elegans Δ12 FAT RNAi feeding phenotype by fatty acid methyl esters; format: in vivo; conditions: 3 mM added to the NGM media
Excerpt: RNAi by feeding: C. elegans can be grown on lawns of E. coli genetically engineered to produce double stranded RNA (dsRNA) designed to inhibit Δ12 FAT expression. Briefly, E. coli were transformed with a genomic fragment of a portion of the C. elegans Δ12 FAT gene sequence, specifically a fragment 651 nucleotides long, containing the entire first exon and terminating just before the conserved intron splice junction between the first exon and first intron. This construct encodes approximately the first 217 amino acids of the C. clegans Δ12 FAT gene. The 651 nucleotide genomic fragment was cloned into an E. coli expression vector between opposing T7 polymerase promoters. The clone was then transformed into a strain of E. coli that carries an IPTG-inducible T7 polymerase. As a control, E. coli was transformed with a gene encoding the Green Fluorescent Protein (GFP).
Feeding RNAi was initiated from C. elegans eggs or from C. elegans L4s.
The C. elegans Δ12 fatty acid desaturase (Fat2 protein) converts the mono-unsaturated oleic acid to the di-unsaturated fatty acid linoleic acid. The […] FAT RNAi prevents expression of the Δ12 fatty acid desaturase, which is predicted to cause a decrease in levels of linoleic acid in the nematode, leading to arrested development and death.

C. elegans [6] = assay: Inhibitor studies: C. elegans cultures on NGM plates containing fatty acid methyl esters; format: in vivo; conditions: for Lifecycle impairments of C. elegans cultures: methyl ester on NGM plates with OP50 E. coli
Excerpt: Vernolic acid and ricinoleic acid are naturally occurring plant-produced fatty acid homologs that we predict to be specific inhibitors of Δ12 FAT enzymes. The addition of these compounds to living cultures of C. elegans is expected to mimic the effects of the Δ12 FAT RNAi experiments since, in each case, the phenotype observed should derive from the inhibition of the nematode Δ12 FAT. To explore this possibility, C. elegans cultures were started from eggs on NGM plates containing their E. coli food source and one of either 3 mM ricinolcic acid methyl ester or 3 mM vernolic acid methyl ester. Total eggs layed and hatch-rates of F1 and F2 individuals were followed and compared to nematode cultures grown in the presence of control fatty acids oleic acid methyl ester and linoleic acid methyl ester. C. elegans L4 larvae were added to NGM plates containing OP50 E. coli and one of the following methyl esters: oleic acid, linolcic acid, ricinoleic acid, vernolic acid or none. C. elegans L4 larvae growing on plates containing ricinoleic acid (FIG. 11) or vernolic acid (FIG. 12) methyl esters developed to mature adults more slowly than those on control plates containing oleic acid (FIG. 9) or linoleic acid (FIG. 10) and produced very few embryos (eggs).

plants [7] = assay: Toxicity to plants (phytotoxicity); conditions: at least some plants
[8] = 3 mM methyl ester on NGM plates with OP50 E. coli

CCCCCC[C@@H](O)C/C=C\CCCCCCCC(=O)O [Ricinoleic acid, reference compound]
Effect on water and electrolyte absorption [1]: inhibitory effect
Cytotoxicity [2]: cytotoxic

CCCCCCCCC1=C(CCCCCCCC(=O)O)C1 [Sterculic acid]
Inhibition of Δ9 fatty acid desaturases [3]: potent inhibitor

CCCCCC#CC/C=C\CCCCCCCC(=O)OC [crepenynic acid methyl ester]
Toxicity to plants (plants [4]): do not appear to be toxic (or are very much less toxic)

CCCCC/C=C\C/C=C\CCCCCCCC(=O)OC [linoleic acid methyl ester, reference compound]
Rescue of the Δ12 FAT RNAi feeding phenotype (C. elegans [5]): partial rescue
Lifecycle impairments of C. elegans cultures (C. elegans [6]): no dramatic lifecycle impairments

CCCCCCCCC1=C(CCCCCCC(=O)O)C1 [malvalate]
Inhibition of Δ9 fatty acid desaturases [3]: equally inhibitory

CCCCCCCC/C=C\CCCCCCCC(=O)OC [oleic acid methyl ester, reference compound]
Rescue of the Δ12 FAT RNAi feeding phenotype (C. elegans [5]): does not rescue
Lifecycle impairments of C. elegans cultures (C. elegans [6]): no dramatic lifecycle impairments

CCCCCC[C@@H](O)C/C=C/CCCCCCCC(=O)OC [ricinelaidic acid methyl ester]
Toxicity to plants (plants [7]): do not appear to be toxic (or are very much less toxic)

CCCCCC[C@@H](O)C/C=C\CCCCCCCC(=O)OC [ricinoleic acid methyl ester]
Embryos (eggs) produced (C. elegans [6]; [8]): very few
Phenotype of young larvae from embryos that hatched (C. elegans [6]; [8]): severe arrested phenotypes and did not develop to adults
Development of L4 larvae to mature adults (C. elegans [6]; 3 mM methyl ester on NGM plates with OP50 E. coli, compared with oleic or linoleic acid control plates): more slowly
Nematicidal activity (C. elegans [6]; methyl esters of fatty acid analogs): nematicidal
Effect on water and electrolyte absorption [1]: ineffective
Toxicity to plants (plants [7]): do not appear to be toxic (or are very much less toxic)
